Measured values as given in ChEMBL document CHEMBL1147689, “Development of withaferin A analogs as probes of angiogenesis” (Bioorg Med Chem Lett, 2006).
Active and inactive are the calls of the source. The rule behind the calls is not given here.

Legend:
Format in all cases: functional, cell-based
Conditions in all cases: Homo sapiens
HUVEC [1] = assay: Ability to block bFGF-induced vessel growth in the type 1 collagen matrix at 5 uM
HUVEC [2] = assay: Ability to block bFGF-induced vessel growth in the type 1 collagen matrix at 1 uM
HUVEC [3] = assay: Increase of ubiquitinated protein level in TNF-alpha-treated HUVEC at 5 uM
HUVEC [4] = assay: Ability to block bFGF-induced vessel growth in the type 1 collagen matrix at 500 nM

| Compound | Activity (HUVEC [1]) | Activity (HUVEC [2]) | Activity (HUVEC [3]) | Activity (HUVEC [4]) |
| --- | --- | --- | --- | --- |
| CC1=C(CO)C(=O)OC([C@@H](C)C2CCC3C4C(CC[C@@]32C)[C@@]2(C)C(=O)C=CC[C@]2(O)[C@H]2O[C@@H]42)C1 (stereo not given in full) | inactive |  |  |  |
| CC1=C(CO)C(=O)O[C@@H]([C@@H](C)[C@H]2CC[C@H]3[C@@H]4C[C@H]5O[C@]56[C@@H](O)C=CC(=O)[C@]6(C)[C@H]4CC[C@]23C)C1 |  | Active |  |  |
| CC1=C(COC(=O)CNC(=O)CCCCCNC(=O)CCCCCNC(=O)CCCC[C@@H]2SCC3NC(=O)NC32)C(=O)OC([C@@H](C)C2CCC3C4C[C@H]5O[C@]56[C@@H](O)C=CC(=O)[C@]6(C)C4CC[C@@]32C)C1 (stereo not given in full) | Active |  | Active | inactive |
